Data as given in patent US9573913B2, “Cathepsin cysteine protease inhibitors” (Merck Sharp & Dohme Corp., priority 2013, dated 2017).

Assays:
human cathepsin K = human cathepsin K (UniProt P43236); assay: Cathepsin K Assay (hrbCat K); assay type: biochemical; conditions: Z-Leu-Arg-AMC substrate, pH 5.5, 15 min preincubation; read-out: hrbCat K (IP (nM))
Summary of the method: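 Human cathepsin K (0.4 nM) was preincubated 15 min at room temperature with compound in 50 mM MES pH 5.5, 2.5 mM EDTA, 2.5 mM DTT and 10% DMSO. Inhibition was fitted to a dose-response model.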

human cathepsin F = molecular target: T1, human cathepsin F (Homo sapiens, UniProt Q9UBX1); assay: Cathepsin F assay (hCat F); assay type: biochemical; conditions: Z-Phe-Arg-AMC substrate, pH 5.5, 15 min preincubation; read-out: hCat F (IP (nM))
T1 sequence (Q9UBX1 271-484): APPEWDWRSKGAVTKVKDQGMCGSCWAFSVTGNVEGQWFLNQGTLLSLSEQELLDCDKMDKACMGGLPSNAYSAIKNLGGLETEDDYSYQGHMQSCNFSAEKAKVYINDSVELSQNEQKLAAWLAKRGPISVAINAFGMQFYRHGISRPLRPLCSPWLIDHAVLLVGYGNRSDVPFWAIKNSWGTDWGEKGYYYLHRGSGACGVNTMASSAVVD
Summary of the method: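 Enzyme (10 nM) was preincubated 15 min at room temperature with compounds (1/3 DMSO dilution series, 500–0.025 μM) in 50 mM MES pH 5.5, 2.5 mM EDTA, 2.5 mM DTT, 10% DMSO. Z-Phe-Arg-AMC (8 μM) was added and AMC fluorescence (Ex 360/Em 460 nm) followed for 20 min. % inhibition was fitted to dose-response curves.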

| IC50 (human cathepsin K) | IC50 (human cathepsin F) | Compound |
| --- | --- | --- |
| 1.8 nM | 3330 nM | COc1ccc(-c2nc([C@@H]3CCCC[C@H]3C(=O)NC3(C#N)CC3)c(-c3ccc(N4CCS(=O)(=O)CC4)cc3)s2)cn1 [Example 86, (1R,2R)-N-(1-cyanocyclopropyl)-2-(5-(4-(1,1-dioxidothiomorpho-lino)phenyl)-2-(6-methoxypyridin-3-yl)thiazol-4-yl)cyclohexane-carboxamide] |
| 6.7 nM | 7780 nM | N#Cc1cc(Cl)ccc1-c1nc([C@@H]2CCCC[C@H]2C(=O)NC2(C#N)CC2)c(-c2ccc(N3CCS(=O)(=O)CC3)cc2)s1 [Example 87, (1R,2R)-2-(2-(4-chloro-2-cyanophenyl)-5-(4-(1,1-dioxidothiomorpho-lino)phenyl)thiazol-4-yl)-N-(1-cyanocyclopropyl) cyclohexanecarbox-amide] |
| 1.5 nM | 1400 nM | N#CC1(NC(=O)[C@@H]2CCCC[C@H]2c2nc(-c3cncc(C(F)(F)F)c3)sc2-c2ccc(N3CCS(=O)(=O)CC3)cc2)CC1 [Example 88, (1R,2R)-N-(1-cyanocyclopropyl)-2-(5-(4-(1,1-dioxidothiomorpho-lino)phenyl)-2-(5-(trifluoromethyl)pyridin-3-yl)thiazol-4-yl)cyclohexane-carboxamide] |
| 3 nM | 1000 nM | N#CC1(NC(=O)[C@@H]2CCCC[C@H]2c2nc(N3CCCCC3)sc2-c2ccc(N3CCS(=O)(=O)CC3)cc2)CC1 [Example 89, (1R,2R)-N-(1-cyanocyclopropyl)-2-(5-(4-(1,1-dioxidothiomorpho-lino)phenyl)-2-(piperidin-1-yl)thiazol-4-yl)cyclohexane-carboxamide] |
| 2.2 nM | 1280 nM | N#CC1(NC(=O)[C@@H]2CCCC[C@H]2c2nc(-c3ccc(C(F)(F)F)cn3)sc2-c2ccc(N3CCS(=O)(=O)CC3)cc2)CC1 [Example 90, (1R,2R)-N-(1-cyanocyclopropyl)-2-(5-(4-(1,1-dioxidothiomorpho-lino)phenyl)-2-(5-(trifluoromethyl)pyridin-2-yl)thiazol-4-yl)cyclohexane-carboxamide] |
| 3.3 nM | 1110 nM | Cc1nc(-c2nc([C@@H]3CCCC[C@H]3C(=O)NC3(C#N)CC3)c(-c3ccc(N4CCS(=O)(=O)CC4)cc3)s2)cs1 [Example 91, (1R,2R)-N-(1-cyanocyclopropyl)-2-(5-(4-(1,1-dioxidothiomorpho-lino)phenyl)-2′-methyl-[2,4′-bithiazol]-4-yl)cyclohexane-carboxamide] |
| 3 nM | 3330 nM | CC(C)(C)c1ccc(-c2nc([C@@H]3CCCC[C@H]3C(=O)NC3(C#N)CC3)c(-c3ccc(N4CCS(=O)(=O)CC4)cc3)s2)cn1 [Example 92, (1R,2R)-2-(2-(6-(tert-butyl)pyridin-3-yl)-5-(4-(1,1-dioxidothiomorpho-lino)phenyl)thiazol-4-yl)-N-(1-cyanocyclopropyl) cyclohexanecarbox-amide] |
| 14.1 nM | ≥ 10000 nM | CC1(C)CC(c2nc([C@@H]3CCCC[C@H]3C(=O)NC3(C#N)CC3)c(-c3ccc(N4CCS(=O)(=O)CC4)cc3)s2)CC(C)(C)O1 [Example 93, (1R,2R)-N-(1-cyanocyclopropyl)-2-(5-(4-(1,1-dioxidothiomorpho-lino)phenyl)-2-(2,2,6,6-tetramethyltetrahydro-2H-pyran-4-yl)thiazol-4-yl)cyclohexane-carboxamide] |
| 5.5 nM | ≥ 10000 nM | N#CC1(NC(=O)[C@@H]2CCCC[C@H]2c2nc(-c3c(F)cccc3F)sc2-c2ccc(N3CCS(=O)(=O)CC3)cc2)CC1 [Example 94, (1R,2R)-N-(1-cyanocyclopropyl)-2-(2-(2,6-difluorophenyl)-5-(4-(1,1-dioxidothiomorpho-lino)phenyl)thiazol-4-yl)cyclohexane-carboxamide] |
| 3.6 nM | 1120 nM | Cc1cc(C#N)ccc1-c1nc([C@@H]2CCCC[C@H]2C(=O)NC2(C#N)CC2)c(-c2ccc(N3CCS(=O)(=O)CC3)cc2)s1 [Example 95, (1R,2R)-2-(2-(4-cyano-2-methylphenyl)-5-(4-(1,1-dioxidothiomorpho-lino)phenyl)thiazol-4-yl)-N-(1-cyanocyclopropyl) cyclohexanecarbox-amide] |

Further lines, the compound ahead of its results:

| Compound | IC50 (human cathepsin K) | IC50 (human cathepsin F) |
| --- | --- | --- |
| N#CC1(NC(=O)[C@@H]2CCCC[C@H]2c2nc(-c3cncc(F)c3)sc2-c2ccc(N3CCS(=O)(=O)C4(CC4)C3)cc2)CC1 [Example 74, (1R,2R)-N-(1-cyanocyclopropyl)-2-(5-(4-(4,4-dioxido-4-thia-7-azaspiro[2.5]octan-7-yl)phenyl)-2-(5-fluoropyridin-3-yl)thiazol-4-yl)cyclohexane-carboxamide] | 1.9 nM | 1370 nM |
| CS(=O)(=O)C1CN(c2ccc(-c3sc(-c4cncc(F)c4)nc3[C@@H]3CCCC[C@H]3C(=O)NC3(C#N)CC3)cc2)C1 [Example 75, (1R,2R)-N-(1-cyanocyclopropyl)-2-(2-(5-fluoropyridin-3-yl)-5-(4-(3-(methylsulfonyl)azetidin-1-yl)phenyl)thiazol-4-yl)cyclohexane-carboxamide] | 1.5 nM | 867 nM |
| N#CC1(NC(=O)[C@@H]2CCCC[C@H]2c2nc(-c3cncc(Cl)c3)sc2-c2ccc(N3CCS(=O)(=O)C4(CC4)C3)cc2)CC1 [Example 76, (1R,2R)-2-(2-(5-chloropyridin-3-yl)-5-(4-(4,4-dioxido-4-thia-7-azaspiro[2.5]octan-7-yl)phenyl)thiazol-4-yl)-N-(1-cyanocyclopropyl) cyclohexanecarbox-amide] | 1.8 nM | 1000 nM |
| Cc1ncc(-c2nc([C@@H]3CCCC[C@H]3C(=O)NC3(C#N)CC3)c(-c3ccc(N4CCS(=O)(=O)CC4)cc3)s2)cn1 [Example 77, (1R,2R)-N-(1-cyanocyclopropyl)-2-(5-(4-(1,1-dioxidothiomorpho-lino)phenyl)-2-(2-methylpyrimidin-5-yl)thiazol-4-yl)cyclohexane-carboxamide] | 1.6 nM | 1870 nM |
| N#CC1(NC(=O)[C@@H]2CCC(F)(F)C[C@H]2c2nc(-c3ccc(F)cc3)sc2-c2ccc(N3CCS(=O)(=O)CC3)cc2)CC1 [Example 78, (1R,2R)-N-(1-cyanocyclopropyl)-2-(5-(4-(1,1-dioxidothiomorpho-lino)phenyl)-2-(4-fluorophenyl)thiazol-4-yl)-4,4-difluorocyclohexane-carboxamide] | 3.8 nM | 3330 nM |
| N#Cc1ccccc1-c1nc([C@@H]2CCCC[C@H]2C(=O)NC2(C#N)CC2)c(-c2ccc(N3CCS(=O)(=O)CC3)cc2)s1 [Example 79, (1R,2R)-N-(1-cyanocyclopropyl)-2-(2-(2-cyanophenyl)-5-(4-(1,1-dioxidothiomorpho-lino)phenyl)thiazol-4-yl)cyclohexane-carboxamide] | 9.3 nM | 5750 nM |
| N#CC1(NC(=O)[C@@H]2CCCC[C@H]2c2nc(-c3ncc(F)cn3)sc2-c2ccc(N3CCS(=O)(=O)CC3)cc2)CC1 [Example 80, (1R,2R)-N-(1-cyanocyclopropyl)-2-(5-(4-(1,1-dioxidothiomorpho-lino)phenyl)-2-(5-fluoropyrimidin-2-yl)thiazol-4-yl)cyclohexane-carboxamide] | 31.6 nM | ≥ 10000 nM |
| COc1cnc(-c2nc([C@@H]3CCCC[C@H]3C(=O)NC3(C#N)CC3)c(-c3ccc(N4CCS(=O)(=O)CC4)cc3)s2)nc1 [Example 81, (1R,2R)-N-(1-cyanocyclopropyl)-2-(5-(4-(1,1-dioxidothiomorpho-lino)phenyl)-2-(5-methoxypyrimidin-2-yl)thiazol-4-yl)cyclohexane-carboxamide] | 48.4 nM | ≥ 10000 nM |
| Cc1cnc(-c2nc([C@@H]3CCCC[C@H]3C(=O)NC3(C#N)CC3)c(-c3ccc(N4CCS(=O)(=O)CC4)cc3)s2)nc1 [Example 82, (1R,2R)-N-(1-cyanocyclopropyl)-2-(5-(4-(1,1-dioxidothiomorpho-lino)phenyl)-2-(5-methylpyrimidin-2-yl)thiazol-4-yl)cyclohexane-carboxamide] | 46.4 nM | ≥ 10000 nM |
| Cc1ccc(-c2nc([C@@H]3CCCC[C@H]3C(=O)NC3(C#N)CC3)c(-c3ccc(N4CCS(=O)(=O)CC4)cc3)s2)nn1 [Example 83, (1R,2R)-N-(1-cyanocyclopropyl)-2-(5-(4-(1,1-dioxidothiomorpho-lino)phenyl)-2-(6-methylpyridazin-3-yl)thiazol-4-yl)cyclohexane-carboxamide] | 1.4 nM | 1110 nM |
| N#Cc1ccc(-c2nc([C@@H]3CCCC[C@H]3C(=O)NC3(C#N)CC3)c(-c3ccc(N4CCS(=O)(=O)CC4)cc3)s2)cc1 [Example 84, (1R,2R)-N-(1-cyanocyclopropyl)-2-(2-(4-cyanophenyl)-5-(4-(1,1-dioxidothiomorpho-lino)phenyl)thiazol-4-yl)cyclohexane-carboxamide] | 0.7 nM | 1410 nM |
| CS(=O)(=O)C1CN(c2ccc(-c3sc(-c4cncc(Cl)c4)nc3[C@@H]3CCCC[C@H]3C(=O)NC3(C#N)CC3)cc2)C1 [Example 85, (1R,2R)-2-(2-(5-chloropyridin-3-yl)-5-(4-(3-(methylsulfonyl)azetidin-1-yl)phenyl)thiazol-4-yl)-N-(1-cyanocyclopropyl) cyclohexanecarbox-amide] | 2.1 nM | 1090 nM |
